One test addresses T1, GP IIb IIIa (Homo sapiens, UniProt P05106+P08514).
T1 construct: from tissue; host or cells: outdated human platelets
As to the kind of experiment: Fibrinogen-GP IIb IIIa Receptor ELISA Binding Assay (Fg/IIbIIIa). On the procedure: Briefly, microtiter plates are coated with fibrinogen (10 mg/ml) and then blocked with TACTS buffer containing 0.5% bovine serum albumin (BSA). […] After another wash a goat anti-mouse IgG conjugated to horseradish peroxidase is added. […] The reaction is stopped with 1N sulfuric acid and the absorbance at 492 nm is recorded. […] Outdated human platelets are washed 3 times with 10 mM tris-HCl, 150 mM NaCl (TBS), 1 mM EDTA, pH 7.5, and centrifuged at 2000×g to pellet cells. […] The supernatant fraction is collected and the supernatant is loaded onto a concanavalin-A column, previously equilibrated in TBS, 1 mM Ca2 Cl2, 0.1% Triton, 0.05% NaN3 and eluted with 0.2M a-methylmannoside. Fractions are pooled and loaded onto a heparin-agarose column. The flowthrough is collected and concentrated on an Amicon YM 30 filter to a volume of approximately 5-10 ml. The concentrate is then applied to an S-300 column (500 ml) and 6 ml fractions are collected. The GP IIb IIIa containing fractions are collected, pooled, and stored at -80° C. […] The precipitate is spun down in appropriate size bottles at 2000×g. The supernatant is decanted and the precipitate resuspended in 150 mM NaCl (approximately 50% of the original volume). […] The suspension is spun down and the precipitate is resuspended in Tris-saline in a minimal volume (approximately 5% of the original volume). Any remaining insoluble material is spun down at 2000 rpm in a Sorval type centrifuge and the fibrinogen supernatant is decanted and dialyzed overnight at 4° C. against Tris-saline. Characterization of the fibrinogen is by the Bradford protein assay, SDS-PAGE, and/or Western blotting using well known standard procedures. Briefly, 96 well plates are coated (Type Nunc 1 MaxisorpTM) with 10 mg/ml purified fibrinogen ([…]), and allowed to stand overnight at 4° C. […] The plates are again washed three times with PBS/Tween and then […] of sample in TNCNT is added. The mixture is incubated for 15 minutes at room temperature on a plate shaker. […] Fifty ml of this diluted GP IIb IIIa is then added to each well and incubated on a plate shaker at room temperature. After one hour, the plates are washed four times with PBS/Tween and 100 ml of a polyclonal or monoclonal antibody specific for GP IIIa such as AP3 (1 mg/ml) (See e.g. […] After a one hour incubation at room temperature on a plate shaker, the samples are washed 4 times with PBS/Tween. […] The color develops within about 3 to 20 minutes and the reaction is stopped with 100 ml 1M H2 SO4. The optical density at 492 nm vs 405 nm is recorded and IC50 values are determined.

In test [1] the test system is human platelet rich plasma (PRP). As to the kind of experiment: In Vitro Human Platelet Aggregation Assay (PA). The format is cell-based. Particulars: Homo sapiens, Platelet. On the procedure: In addition to the GPIIb IIIa ELISA assay, platelet aggregation assays may be performed in human platelet rich plasma (PRP). […] The blood is centrifuged at 160×g for 10 min at 22° C. and then allowed to stand for 5 min after which the PRP is decanted. Platelet poor plasma (PPP) is isolated from the remaining blood after centrifugation at 2000×g for 25 min. The platelet count of the PRP is adjusted to ca. 300,000 per microliter with PPP.
A 225 mL aliquot of PRP plus 25 mL of either a dilution of the test sample or a control (PBS) is incubated for 5 min in a Chrono-log Whole Blood Aggregometer at 25° C. An aggregating agent (collagen, 1 mg/ml; U46619, 100 ng/ml; or ADP, 8 mM) is added and the platelet aggregation recorded.
Platelet aggregation assays are performed in human platelet rich plasma (PRP). […] The blood is centrifuged at 160×g for 10 minutes at 22° C. and allowed to stand for 5 minutes after which the PRP is decanted. Platelet poor plasma (PPP) is isolated from the remaining blood after centrifugation at 2000×g for 25 minutes. The platelet count of the PRP is diluted to about 300,000 platelets per microliter with PPP.
A 225 ml aliquot of PRP plus 25 ml of either a dilution of the test inhibitor sample or a control (PBS) is incubated for 5 minutes in a Chrono-log Whole Blood Aggregometer at 25° C. An aggregating agent (collagen, 1 mg/ml; U46619, 100 ng/ml; or ADP, 17 mM) is added and the transmission is recorded.

Setting [2] is: Example 29, Cmpd # 1-105, read-out: IC50 Fg/IIbI.
Setting [3] is: Example 30, G # table, read-out: IC50 (μM) Fg/IIbIIIa.
[4] abbreviates: citrate, read-out: PA IC50 (μM) (citrate).
[5] abbreviates: Examples 29 and 30, Cmpd # tables, read-out: IC50 (μM) Fg/IIbIIIa.

Where a name gives a salt, the structure may show the parent alone. Read-outs that look alike come from different tables or passages of the source.

T1 sequence (P08514 32-887 limits assumed): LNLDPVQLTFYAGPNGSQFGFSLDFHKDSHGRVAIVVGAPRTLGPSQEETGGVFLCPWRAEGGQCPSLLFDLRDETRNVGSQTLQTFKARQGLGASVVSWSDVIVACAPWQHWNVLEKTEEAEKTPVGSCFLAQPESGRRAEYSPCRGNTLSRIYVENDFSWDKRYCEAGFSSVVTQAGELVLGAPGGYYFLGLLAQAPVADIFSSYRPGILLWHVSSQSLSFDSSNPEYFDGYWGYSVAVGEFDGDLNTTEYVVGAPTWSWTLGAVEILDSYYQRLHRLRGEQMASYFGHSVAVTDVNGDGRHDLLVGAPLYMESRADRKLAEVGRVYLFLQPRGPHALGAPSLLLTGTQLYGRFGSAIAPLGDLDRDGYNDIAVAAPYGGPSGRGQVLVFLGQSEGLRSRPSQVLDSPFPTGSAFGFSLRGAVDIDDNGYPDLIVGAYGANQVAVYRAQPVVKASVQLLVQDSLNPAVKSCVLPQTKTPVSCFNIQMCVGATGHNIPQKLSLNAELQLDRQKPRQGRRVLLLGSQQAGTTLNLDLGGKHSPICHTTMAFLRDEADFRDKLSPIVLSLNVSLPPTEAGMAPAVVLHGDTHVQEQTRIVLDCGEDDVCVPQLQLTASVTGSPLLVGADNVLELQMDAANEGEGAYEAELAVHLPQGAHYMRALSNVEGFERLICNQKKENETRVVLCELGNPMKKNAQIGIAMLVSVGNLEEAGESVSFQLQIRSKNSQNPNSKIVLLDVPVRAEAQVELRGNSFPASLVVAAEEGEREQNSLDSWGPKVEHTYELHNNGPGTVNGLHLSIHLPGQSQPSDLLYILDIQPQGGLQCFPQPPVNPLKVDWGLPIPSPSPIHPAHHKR
T1 sequence (P08514 891-1039 partner limits assumed): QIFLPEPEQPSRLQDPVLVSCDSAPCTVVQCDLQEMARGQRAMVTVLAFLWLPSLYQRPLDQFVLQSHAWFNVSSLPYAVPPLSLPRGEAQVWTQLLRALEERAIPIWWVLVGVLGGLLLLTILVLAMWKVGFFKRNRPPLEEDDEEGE
T1 sequence (P05106 27-788): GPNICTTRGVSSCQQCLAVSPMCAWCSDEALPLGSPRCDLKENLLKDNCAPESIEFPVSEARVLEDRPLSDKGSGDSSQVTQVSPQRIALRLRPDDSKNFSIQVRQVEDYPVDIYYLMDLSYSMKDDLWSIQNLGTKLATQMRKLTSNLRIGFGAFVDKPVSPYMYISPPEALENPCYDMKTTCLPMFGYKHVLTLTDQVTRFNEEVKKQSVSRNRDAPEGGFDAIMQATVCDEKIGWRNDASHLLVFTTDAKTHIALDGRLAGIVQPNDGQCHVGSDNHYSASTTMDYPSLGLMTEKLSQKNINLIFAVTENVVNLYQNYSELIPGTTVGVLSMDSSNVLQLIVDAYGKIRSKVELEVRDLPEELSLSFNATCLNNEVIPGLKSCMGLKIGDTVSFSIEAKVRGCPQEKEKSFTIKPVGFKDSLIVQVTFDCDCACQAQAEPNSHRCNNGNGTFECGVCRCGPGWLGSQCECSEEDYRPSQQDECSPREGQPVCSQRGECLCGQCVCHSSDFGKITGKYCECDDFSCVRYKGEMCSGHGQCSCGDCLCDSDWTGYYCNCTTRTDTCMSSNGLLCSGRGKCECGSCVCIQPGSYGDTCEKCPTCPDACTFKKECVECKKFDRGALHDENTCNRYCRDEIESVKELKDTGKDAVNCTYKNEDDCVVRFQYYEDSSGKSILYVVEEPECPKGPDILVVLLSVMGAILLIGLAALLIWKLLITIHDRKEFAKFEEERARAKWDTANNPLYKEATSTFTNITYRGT

As for `CC(CC(=O)O)N1CC(=O)N(C)c2ccc(C#CCCCNC(=N)N)cc2C1=O` (centres unmarked) [Cmpd 38, 1-methyl-4-(2-carboxy-1-methylethyl)-7-(5-guanidino-1-pentynyl)-3,4-dihydro-1H-1,4, benzodiazepine-2,5-dione trifluroacetate], the values for the IC50 (on GP IIb IIIa (setting [2]); at GP IIb IIIa (setting [3]); in test [1] (setting [4])) were 0.018 µM, 0.018 µM and 1.19 µM, respectively.
Consider `O=C(O)CCN1CC(=O)N(Cc2ccc(Cl)cc2)c2ccc(-c3ccc(N4CCNCC4)cc3)cc2C1=O` [Cmpd 73, 1-(p-chlorobenzyl)-7-[4-(1-piperazine)phenyl]-4-(2-carboxyethyl)-3,4-dihydro-1H-1,4-benzodiazpine-2,4-dione trifluoroacetate], for which the IC50 at GP IIb IIIa (setting [2]) was found to be 0.007 µM; at GP IIb IIIa (setting [3]), 0.007 µM; in test [1] (setting [4]) it was 0.67 µM; in test [1] (heparin, read-out: PA IC50 (μM) (heparin)) it was 2.3 µM.
With `N=C(N)NCCCCCc1ccc2c(c1)C(=O)N(CCC(=O)O)CC(=O)N2Cc1ccc2ccccc2c1` [Cmpd 75, 1-(2-napthyl)methyl-4-(2-carboxyethyl)-7-(5-guanidinopentyl)-3,4-dihydro-1H-1,4-benzodiazepine-2,5-dione trifluoroacetate], the figures for the IC50 (on GP IIb IIIa (setting [2]); on GP IIb IIIa (setting [3]); in test [1] (setting [4])) were 0.011 µM, 0.011 µM and 6.88 µM, respectively.
In the case of `NCCCCCc1ccc2c(c1)C(=O)N(CCC(=O)O)CC(=O)N2Cc1ccc2ccccc2c1` [Cmpd 76, 1-(2-napthyl)methyl-4-(2-carboxyethyl)-7-(5-aminopentyl)-3,4-dihydro-1H-1,4-benzodiazepine-2,5-dione trifluoroacetate], the values for the IC50 (at GP IIb IIIa (setting [2]); on GP IIb IIIa (setting [3]); in test [1] (setting [4])) were 0.077 µM, 0.077 µM and 28.9 µM, respectively.
As for `N=C(N)NCCCCCc1ccc2c(c1)C(=O)N(CCC(=O)O)CC(=O)N2Cc1cccc2ccccc12` [Cmpd 77, 1-(1-napthyl)methyl-4-(2-carboxyethyl)-7-(5-guanidinopentyl)-3,4-dihydro-1H-1,4-benzodiazepine-2,5-dione trifluoroacetate], the IC50 worked out at 0.008 µM at GP IIb IIIa (setting [2]), 0.008 µM at GP IIb IIIa (setting [3]) and 2.65 µM in test [1] (setting [4]).
With `NCCCCCc1ccc2c(c1)C(=O)N(CCC(=O)O)CC(=O)N2Cc1cccc2ccccc12` [Cmpd 78, 1-(1-napthyl)methyl-4-(2-carboxyethyl)-7-(5-aminopentyl)-3,4-dihydro-1H-1,4-benzodiazepine-2,5-dione trifluoroacetate], the values for the IC50 (on GP IIb IIIa (setting [2]); on GP IIb IIIa (setting [3]); in test [1] (setting [4])) were 0.066 µM, 0.066 µM and 6.53 µM, respectively.
On to `COc1ccc(CN2C(=O)CN(CCC(=O)O)C(=O)c3cc(CCCCCCN)ccc32)cc1` [Cmpd 81, 1-(p-methoxybenzyl)-4-(2-carboxyethyl)-7-(6-aminohexyl)-3,4-dihydro-1H-1,4-benzodiazepine-2,5-dione trifluoroacetate], for which the IC50 on GP IIb IIIa (setting [2]) came to 0.023 µM; at GP IIb IIIa (setting [3]) it was 0.023 µM; in test [1] (setting [4]), 0.98 µM.
For `NCCCCCCc1ccc2c(c1)C(=O)N(CCC(=O)O)CC(=O)N2Cc1cccc2ccccc12` [Cmpd 82, 1-(1-napthyl)methyl-4-(2-carboxyethyl)-7-(6-aminohexyl)-3,4-dihydro-1H-1,4-benzodiazepine-2,5-dione trifluoroacetate], the IC50 on GP IIb IIIa (setting [2]) amounted to 0.015 µM; at GP IIb IIIa (setting [3]), 0.015 µM; in test [1] (setting [4]), 0.76 µM.
`NCCCCCCc1ccc2c(c1)C(=O)N(CCC(=O)O)CC(=O)N2Cc1ccc2ccccc2c1` [Cmpd 83, 1-(2-napthyl)methyl-4-(2-carboxyethyl)-7-(6-aminohexyl)-3,4-dihydro-1H-1,4-benzodiazepine-2,5-dione trifluoroacetate]: the IC50 turned out to be 0.017 µM on GP IIb IIIa (setting [2]), 0.017 µM on GP IIb IIIa (setting [3]) and 3.19 µM in test [1] (setting [4]).
On to `COc1ccc(CN2C(=O)CN(CCC(=O)O)C(=O)c3cc(CCCCCCNC(=N)N)ccc32)cc1` [Cmpd 84, 1-(p-methoxybenzyl)-4-(2-carboxyethyl)-7-(6-guanidinohexyl)-3,4-dihydro-1H-1,4-benzodiazepine-2,5-dione trifluoroacetate], for which the IC50 at GP IIb IIIa (setting [2]) was determined as 0.024 µM; at GP IIb IIIa (setting [3]) it was 0.024 µM; in test [1] (setting [4]), 10.4 µM.
With `N=C(N)NCCCCCCc1ccc2c(c1)C(=O)N(CCC(=O)O)CC(=O)N2Cc1cccc2ccccc12` [Cmpd 85, 1-(1-napthyl)methyl-4-(2-carboxyethyl)-7-(6-guanidinohexyl)-3,4-dihydro-1H-1,4-benzodiazepine-2,5-dione trifluoroacetate], the IC50 at GP IIb IIIa (setting [2]) was found to be 0.014 µM; on GP IIb IIIa (setting [3]) it was 0.014 µM; in test [1] (setting [4]), 6.2 µM.
For `NCCCCCCc1ccc2c(c1)C(=O)N(CCC(=O)O)CC(=O)N2Cc1cccc(NC(=O)CCCN)c1` [Cmpd 112, 1-[3-(N-(4-aminobuturyl))aminophenyl]methyl-4-(2-carboxyethyl)-7-(6-aminohexyl)-3,4-dihydro-1H-1,4-benzodiazapine-2,5-dione bistrifluoroacetate], the IC50 at GP IIb IIIa (setting [3]) was determined as 0.008 µM; at GP IIb IIIa (setting [5]), 0.008 µM; in test [1] (setting [4]), 0.4 µM.
For the compound `N=C(N)NCCCCCCCCOc1ccc2c(c1)C(=O)N(CCC(=O)O)CCC2` [Cmpd 152, 2-(2-carboxyethyl)-8-(8-guanadinooctyloxy)-2,3,4,5-tetrahydro-1H-2-benzazepin-1-one trifluoroacetate], at GP IIb IIIa (setting [5]), the IC50 amounted to 50 µM.
The same measure, in the same setting: in the case of `NCCCC#Cc1ccc2c(c1)C(=O)N(CCC(=O)O)CCC2` [Cmpd 153, 2-(2-carboxyethyl)-8-(5-aminopentynyl)-2,3,4,5-tetrahydro-1H-2-benzazepin-1-one trifluoroacetate] it was > 100 µM; in that of `N=C(N)NCCCC#Cc1ccc2c(c1)C(=O)N(CCC(=O)O)CCC2` [Cmpd 154, 2-(2-carboxyethyl)-8-(5-guanidinopentynyl)-2,3,4,5-tetrahydro-1H-2-benzazepin-1-one trifluoroacetate], 20 µM; in that of `NCCCCCc1ccc2c(c1)C(=O)N(CCC(=O)O)CCC2` [Cmpd 155], > 100 µM.
Still for that read-out and setting: in the case of `N=C(N)NCCCCCc1ccc2c(c1)C(=O)N(CCC(=O)O)CCC2` [Cmpd 156] it was ~100 µM; in that of `N=C(N)c1ccc(COc2ccc3c(c2)C(=O)N(CCC(=O)O)CCC3)cc1` [Cmpd 157, 2-(2-carboxyethyl)-8-(4-amidinobenzyloxy)-2,3,4,5-tetrahydro-1H-2-benzazepin-1-one trifluoroacetate], 0.137 µM.
In the case of `N=C(N)NCCCc1cccc(C(=O)NCCC(=O)O)c1` [Cmpd 158], the IC50 at GP IIb IIIa (setting [5]) is 2.3 µM.
Still for that read-out and setting: in the case of `N=C(N)NCC#Cc1cccc(C(=O)NCCC(=O)O)c1` [Cmpd 159] it was 0.552 µM; in that of `N=C(N)NCCC#Cc1cccc(C(=O)NCCC(=O)O)c1` [Cmpd 160], 1.01 µM; in that of `NCCCC#Cc1cccc(C(=O)NCCC(=O)O)c1` [Cmpd 161], 9 µM.
Consider `N=C(N)NCCCC#Cc1cccc(C(=O)NCCC(=O)O)c1` [Cmpd 162], for which the IC50 at GP IIb IIIa (setting [5]) was 1 µM.
Still for that read-out and setting: with `NCCCCC#Cc1cccc(C(=O)NCCC(=O)O)c1` [Cmpd 163] the figure was 2.7 µM; with `N=C(N)NCCCCC#Cc1cccc(C(=O)NCCC(=O)O)c1` [Cmpd 164], 3.4 µM.

Source of the values: US5250679A, “Nonpeptidyl platelet aggregation inhibitors having specificity for the GPIIb III receptor” (Genentech, Inc., priority 1992, dated 1993).
